# Results published in patent US11576923B2, “Composition for improving skin elasticity comprising novel ginsenoside” (AMOREPACIFIC CORPORATION, priority 2019, dated 2023).
# How the values were obtained:
# Assay type in all cases: cell-based
# [1] = system: collagen biosynthesis in normal human dermal fibroblasts (NHDFs); test: Collagen biosynthesis-promoting effect (procollagen mRNA by Q-PCR, secreted collagen protein by ELISA)
# Description: Normal human dermal fibroblasts (NHDFs; ATCC) were cultured in Dulbecco's modified Eagle's medium (Sigma) supplemented with 10% fetal bovine serum (FBS; Hyclone) and 1 (w/v) % penicillin/streptomycin (Sigma) at 37° C. in a 5% CO2 incubator. For collagen synthesis, after replacing the medium with serum-free Dulbecco's modified Eagle's medium, the cells were treated with GS #10, which is a novel ginsenoside according to an exemplary embodiment of the present disclosure, and ginsenosides GS #01-GS #06 as comparative examples of the present disclosure, which were isolated from the ginseng seed extract, for 24 hours at a concentration of 10 μg/mL, respectively. Fibroblast growth factor 1 (FGF1) was used as a positive control group for inducing collagen synthesis. After recovering the cells and extracting RNA using a TRIzol™ reagent (Thermo), cDNA was synthesized using a ReverdAid 1st strand cDNA synthesis kit (Thermo). Then, the change in the amount of procollagen mRNA was observed using a gene amplifier (CFX96 thermocycler, Bio-Rad) (FIG. 11), and the amount of the collagen protein secreted to the medium was measured using a collagen ELISA kit (Abcam) (FIG. 12) […]
# [2] = system: matrix metalloproteinase-1 (MMP-1) expression in normal human dermal fibroblasts (NHDFs); test: Collagen degradation-inhibiting effect (TNFα-induced MMP-1 mRNA by Q-PCR, secreted MMP-1 protein by ELISA)
# From the text: For skin elasticity to be maintained, the synthesis of collagen should be promoted and its degradation should be inhibited. Because collagen is degraded by matrix metalloproteinase-1 (MMP-1), it was investigated whether the ginseng seed-derived ginsenosides inhibit the expression of the collagen-degrading enzyme. After pretreating normal human dermal fibroblasts (NHDFs; ATCC) with GS #10, which is a novel ginsenoside according to an exemplary embodiment of the present disclosure, and ginsenosides GS #01-GS #06 as comparative examples of the present disclosure, which were isolated from the ginseng seed extract, under a serum-free condition in the same manner as in Test Example 1 for 2 hours at a concentration of 10 μg/mL, respectively, the cells were treated for 24 hours with a substance capable of inducing inflammatory response (TNFα; 10 ng/mL), which can promote the expression of MMP-1. After preparing RNA and cDNA in the same manner as in Test Example 1, the expression of MMP-1 mRNA was investigated by Q-PCR (FIG. 13), and the amount of the secreted MMP-1 protein was analyzed using a human MMP-1 ELISA kit (Abcam) (FIG. 14). […] Through this, it was confirmed that Compound 10 (GS #10), which is a novel ginsenoside of the present disclosure, can effectively improve skin elasticity by alleviating or delaying the decline in skin elasticity and the formation of wrinkles. […]
# SH-SY5Y cells = test: Cytotoxicity (CCK-8 cell viability); details: 0.1, 1, 5, 10, 20 and 50 μM, FIG. 19
# Description: Cell growth in the presence of the novel ginsenoside GS #10 according to an exemplary embodiment of the present disclosure was evaluated using a cell counting kit (CCK-8) in order to exclude the possibility that the ginsenoside may affect the effect of improving skin elasticity or improving wrinkles through cytotoxic activity. The experimental method is as follows.
# 10 μL of a CCK-8 reagent was added to SH-SY5Y cells (Dojindo, Md., USA) in a 96-well plate and left at 37° C. for 2 hours. Then, absorbance was measured at 450 nm. Cell viability was represented as the percentage (%) of the absolute optical density of each sample relative to an untreated sample. The concentration of the novel ginsenoside GS #10 according to an exemplary embodiment of the present disclosure in the medium in which the cells were cultured was 0.1, 1, 5, 10, 20 and 50 μM, respectively.
compound,measurement,setting,value
"CC1(C)C(=O)CC[C@@]2(C)C1[C@@H](O[C@H]1OC(CO)[C@H](O)C(O)C1O[C@H]1OC(CO)[C@H](O)C(O)C1O)C[C@]1(C)C2C[C@@H](O)C2C([C@]3(C)CC[C@H](C(C)(C)O)O3)CC[C@]21C (stereo partly drawn) [Compound 10, (20S,24R)-6-O-β-D-glucopyranosyl(1→2)-β-D-glucopyranoside-dammar-3-one-20,24-epoxy-6a,12b,25-triol]",increase in the amount of collagen due to promoted collagen biosynthesis,"[1]; NHDFs, 10 μg/mL, 24 hours, serum-free, vs control group (−), FIG. 11 and FIG. 12",about 2 times
same,increase of collagen synthesis,"[1]; Test Example 3, same manner as Test Example 1, FIG. 15 and FIG. 16",≥ 2 times
same,effect of inhibiting MMP-1 expression as compared to Compounds 1-6,"[2]; NHDFs, 10 μg/mL pretreatment 2 hours, then TNFα 10 ng/mL 24 hours, FIG. 13 and FIG. 14",2-3 times higher
same,effect of inhibiting collagen degradation as compared to the three red ginseng marker ginsenosides,"[2]; Test Example 3, same manner as Test Example 2, FIG. 17 and FIG. 18",remarkably excellent effect of inhibiting collagen degradation
same,"cytotoxicity (cell viability, CCK-8)",SH-SY5Y cells,did not exhibit cytotoxicity up to 50 μM
